Measurements: patent US6165977A, “Isozyme-specific activators of protein kinase C methods and compositions” (Board of Trustees of the Leland Stanford Junior University, priority 1997, dated 2000)
No end group written: not given here.

Assays:
βPKC = assay: Western blot of PMA-induced PKC translocation from cell soluble to particulate fraction; type: cell-based, rat; conditions: 10 nM PMA for 10 minutes, cardiac myocytes
Protocol: (§1) Briefly, ventricles from day-old Sprague-Dawley rats were minced, and single isolated myocytes were obtained by alternating cycles of room temperature trypsinization and mechanical dissociation. […] After 30 minutes nonattached cardiac myocytes were collected and replated at a density of 800 cells per mm^2 into 8-well glass chamber slides (Nunc, Naperville, Ill.) for cell viability assays and immunofluorescence staining, into 6-well plastic culture plates (Fisher Scientific, Pittsburgh, Pa.) for lactate dehydrogenase (LDH) assays, or into 100 mm glass culture dishes for Western blot analyses. […] Experiments were conducted on culture days 6-8.
(§2) Following treatment, medium from one plate was removed, and cells were washed twice with ice-cold phosphate-buffered saline (PBS). 1.5 ml of chilled homogenization buffer consisting of 10 mM Tris-HCl pH 7.4, 1 mM EDTA, 1 mM EGTA, 0.25 M sucrose, and […] each of phenylmethylsulfonyl fluoride, soybean trypsin inhibitor, leupeptin, and aprotinin was added to each dish. Myocytes were scraped from the plates and triturated 3 times with a tuberculin syringe attached to a 22-gauge needle. […] Supernatants were concentrated to a volume of […] with a Centricon 30 filtration unit (Amicon, Beverly, Mass.).

δPKC = biological target: T1, δPKC (Rattus norvegicus, UniProt P09215); assay: as above; type: cell-based; conditions: 10 nM PMA for 10 minutes, cardiac myocytes
T1 construct: Western Blot of cardiac myocyte soluble and particulate fractions; endogenous in cells; host or cells: primary neonatal Sprague-Dawley rat ventricular myocytes
Protocol: Primary cell cultures were prepared as previously described (Disatnik, et al., 1994). Briefly, ventricles from day-old Sprague-Dawley rats were minced, and single isolated myocytes were obtained by alternating cycles of room temperature trypsinization and mechanical dissociation. Cells were washed and preplated in medium 199 with Hanks' salt solution (Gibco/BRL Life Technologies, Gaithersburg, Md.) containing 10% fetal bovine serum (Hyclone Laboratories, Inc., Logan, Utah) to reduce the number of contaminating non-myocardial cells (NMCs). […]
Western blot analyses of cardiac myocytes grown on 100 mm glass dishes were carried out as previously described (Liu, Y., et al., 1995). […] Soluble and particulate fractions were then subjected to 12% SDS-PAGE and transferred to nitrocellulose sheets. βPKC levels were determined using monoclonal anti-βPKC antibodies (Seikagaku Kogyo, Tokyo, Japan) diluted 1:1000 followed by incubation with rabbit anti-mouse IgG antibodies (Cappel, Durham, N.C.), also at 1:1000 dilution. δPKC and εPKC levels were determined using rabbit polyclonal anti-δPKC and anti-εPKC antibodies (Gibco/BRL), each at 1:300 dilution. Western blots were then incubated with ^125 I-protein A (ICN Biomedicals, Inc., Irvine, Calif.), and PKC immunoreactive bands were detected by autoradiography.
The ability of PMA to activate the PKC isozymes αPKC, βPKC, δPKC and εPKC was evaluated. […]

εPKC [1] = biological target: T2, εPKC (Rattus norvegicus, UniProt P09216); assay: as above; type: cell-based; conditions: 10 nM PMA for 10 minutes, cardiac myocytes
T2 construct: Western Blot of cardiac myocyte soluble and particulate fractions; endogenous in cells; host or cells: primary neonatal Sprague-Dawley rat ventricular myocytes
T2 sequence (P09216 1-737): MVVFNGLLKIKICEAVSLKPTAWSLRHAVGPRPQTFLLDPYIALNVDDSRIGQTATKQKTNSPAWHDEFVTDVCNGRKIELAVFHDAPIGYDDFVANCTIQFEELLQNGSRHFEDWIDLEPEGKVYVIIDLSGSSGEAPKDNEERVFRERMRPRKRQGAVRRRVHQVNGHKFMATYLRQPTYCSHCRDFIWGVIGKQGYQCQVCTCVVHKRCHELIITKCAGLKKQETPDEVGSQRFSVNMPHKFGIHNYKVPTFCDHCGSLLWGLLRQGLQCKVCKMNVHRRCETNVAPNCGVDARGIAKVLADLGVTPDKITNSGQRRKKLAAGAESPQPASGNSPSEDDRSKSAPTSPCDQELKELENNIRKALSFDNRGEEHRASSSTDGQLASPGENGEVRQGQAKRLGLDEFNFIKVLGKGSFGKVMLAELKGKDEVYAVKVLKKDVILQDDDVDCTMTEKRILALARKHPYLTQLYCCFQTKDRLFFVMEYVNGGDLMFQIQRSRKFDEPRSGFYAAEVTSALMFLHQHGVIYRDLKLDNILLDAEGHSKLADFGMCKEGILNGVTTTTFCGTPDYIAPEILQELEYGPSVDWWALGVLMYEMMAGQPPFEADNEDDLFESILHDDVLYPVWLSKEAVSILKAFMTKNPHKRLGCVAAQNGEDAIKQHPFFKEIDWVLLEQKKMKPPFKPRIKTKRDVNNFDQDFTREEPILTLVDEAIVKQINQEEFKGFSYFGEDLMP
Protocol: as §1, §2

cardiac myocytes [2] = assay: PMA-induced protection of cardiac myocytes from prolonged hypoxia, cell viability assay; type: cell-based, rat; conditions: 10 nM PMA for 10 minutes, washed, then 9 hours of hypoxia
Protocol: (§3) Primary cell cultures were prepared as previously described (Disatnik, et al., 1994). Briefly, ventricles from day-old Sprague-Dawley rats were minced, and single isolated myocytes were obtained by alternating cycles of room temperature trypsinization and mechanical dissociation. Cells were washed and preplated in medium 199 with Hanks' salt solution (Gibco/BRL Life Technologies, Gaithersburg, Md.) containing 10% fetal bovine serum (Hyclone Laboratories, Inc., Logan, Utah) to reduce the number of contaminating non-myocardial cells (NMCs). After 30 minutes nonattached cardiac myocytes were collected and replated at a density of 800 cells per mm^2 into 8-well glass chamber slides (Nunc, Naperville, Ill.) for cell viability assays and immunofluorescence staining, into 6-well plastic culture plates (Fisher Scientific, Pittsburgh, Pa.) for lactate dehydrogenase (LDH) assays, or into 100 mm glass culture dishes for Western blot analyses. […]
(§4) Following treatment of cardiac myocytes grown on 8-well chamber slides, living and dead cells were distinguished using the "EUKOLIGHT" Viability/Cytotoxicity assay (Molecular Probes, Eugene, Oreg.). […] The number of viable (green fluorescent by calcine) and non-viable (red fluorescent by ethidium) cardiac myocytes present in 10-20 random microscopic fields per condition per experiment was recorded. […]

εPKC [3] = biological target: T2, εPKC; assay: Effect of isoform-specific inhibitory peptides on PMA-induced PKC translocation, Western blot; type: cell-based; conditions: peptide introduced by permeabilization, 10 nM PMA for 10 minutes
Protocol: as §1, §2

εPKC [4] = biological target: T2, εPKC; assay: Peptide-induced translocation of PKC in cardiac myocytes; type: cell-based; conditions: 10 μg/ml in permeabilization buffer
Protocol: as §3
Immunofluorescence staining of cardiac myocytes grown on 8-well glass chamber slides was carried out as previously described (Hauser, et al., 1993). […] Images were recorded on Kodak TMAX 400 film with exposure time of 1 second for all photomicrographs and were processed by an automated, commercial developer without additional adjustment. […]

cardiac myocytes [5] = assay: Protection of cardiac myocytes from 9 hours of hypoxia by peptides, cell viability assay; type: cell-based, rat; conditions: after 9 hours of hypoxia; peptide introduced by saponin permeabilization; average of two experiments
Protocol: as §3, §4

T1 sequence (P09215 whole entry): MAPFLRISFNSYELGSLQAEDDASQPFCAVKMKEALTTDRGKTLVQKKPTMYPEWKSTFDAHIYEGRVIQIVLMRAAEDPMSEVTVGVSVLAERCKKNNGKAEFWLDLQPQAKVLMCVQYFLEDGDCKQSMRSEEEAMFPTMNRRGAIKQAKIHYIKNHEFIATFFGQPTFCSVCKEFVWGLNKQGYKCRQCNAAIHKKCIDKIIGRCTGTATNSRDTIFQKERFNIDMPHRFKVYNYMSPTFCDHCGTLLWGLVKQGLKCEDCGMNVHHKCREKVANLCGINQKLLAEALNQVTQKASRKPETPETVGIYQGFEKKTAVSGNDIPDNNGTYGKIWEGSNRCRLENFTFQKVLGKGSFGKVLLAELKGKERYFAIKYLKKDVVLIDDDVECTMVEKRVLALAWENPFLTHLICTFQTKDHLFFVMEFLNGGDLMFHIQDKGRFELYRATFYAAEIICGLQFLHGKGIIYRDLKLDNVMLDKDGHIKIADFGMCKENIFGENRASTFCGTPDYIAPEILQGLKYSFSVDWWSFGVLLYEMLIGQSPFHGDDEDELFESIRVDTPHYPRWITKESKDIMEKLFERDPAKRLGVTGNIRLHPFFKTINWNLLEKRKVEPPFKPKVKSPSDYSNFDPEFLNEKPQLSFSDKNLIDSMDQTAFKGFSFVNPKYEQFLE

## CCCCCCCCCCCCCC(=O)O[C@@H]1[C@@H](C)[C@@]2(O)[C@@H](C=C(CO)C[C@]3(O)C(=O)C(C)=C[C@@H]23)[C@@H]2C(C)(C)[C@]12OC(C)=O [PMA, 4β-phorbol 12-myristate 13-acetate]
βPKC
  translocation of βPKC from the cell soluble to the cell particulate fraction: minimal translocation
δPKC
  translocation of δPKC in response to PMA: robust
εPKC [1]
  translocation of εPKC in response to PMA: robust
Cardiac myocytes [2]
  increase in the proportion of surviving myocytes versus control: 34%

## EAVSLKPT [εV1-2]
εPKC [3]
  reduction in the particulate signal compared with PMA alone (densitometry): 23%

## HDAPIGYD [εV1-7]
εPKC [4]
  cells with translocation of εPKC: 70%
Cardiac myocytes [5]
  viable cells: 65%

## SLNPEWNET [β pseudo-RACK peptide]
Cardiac myocytes [5]
  viable cells: 35%
